Where two headings read alike, the source gives them in different places. Some results are limits rather than exact numbers.

A short description of data set [1]: In vitro metabolic stability with mouse liver microsomes. In kind it is in vitro ADME. The note with it: 60 min; for metabolic stability (in words): MLM + NADPH-generating system. The method, then: All newly synthesized LSF derivatives of 5c were biologically evaluated to determine whether the introduced modifications influenced both metabolic stability and anti‐PCSK9 activity. Microsomal stability assays were conducted to assess the impact of LSF modifications on improving the stability of 5c. In these assays, LSF derivatives were incubated with mouse liver microsomes (MLM) and an NADPH‐generating system for 60 min, followed by HPLC analysis. Control samples included compounds and liver microsomes without the NADPH system, allowing for the assessment of nonspecific binding to microsomes. […] Acylated derivatives 12, 13, and 14 achieved stability levels exceeding 95%, as did the bicyclic derivative 7, which exemplifies a dual‐site functionalization.
MLM (pooled male) were obtained from Xenotech, LLC (Cambridge, Kansas City, USA). Glucose‐6‐phosphate (G6P), oxidized nicotinamide‐adenine‐dinucleotide phosphate (NADP^+), magnesium chloride (MgCl2), and glucose‐6‐phosphate‐dehydrogenase (G6PDH) were supplied by Sigma‐Aldrich (Milan, Italy). Metabolic stability assays were modified from Ferlenghi et al.^[ [33] ^] Briefly, samples were prepared in 100 mM phosphate buffered saline (PBS), pH 7.4, containing 1 mg ml^–1 MLM and a NADPH‐generating system (5 mM MgCl2, 10 mM glucose‐6‐phosphate, 2 mM NADP^+, 1.5 U ml^–1 of glucose‐6‐phosphate dehydrogenase). After incubation (37 °C, 5 min stirring), compounds stock solutions in DMSO were added to a final concentration of 10 µM. The final DMSO percentage in samples was kept at 0.5%. After 60 min, single aliquots of reaction mixture were withdrawn, added of two volumes of acetonitrile, centrifuged (10,000 g, 10 min) and the supernatant was analyzed by HPLC. The unspecific binding to MLM was evaluated by means of control samples in which the compounds were incubated in the absence of a NADPH generating system. The apparatus used for HPLC analysis was a Shimadzu instrument, with a reverse‐phase Nova‐Pak column (Waters) (C18 4 μm 3.9 × 150 mm, Waters). The mobile phase, pumped at a flow rate of 1.2 ml min^–1, consisted of water and acetonitrile in either a 50:50 (v/v) ratio (compounds 5c, 6a, 6b, 6c, 7, 8, 12, 13, 14, 17b) or a 40:60 (v/v) ratio (compounds 11 and 15) or a 30:70 (v/v) ratio (for compounds 17a, 18a, 18b). For compounds 9 and 10, a phosphate buffer (5.98 g L^–1 Na2HPO4, 0.19 g L^–1 KH2PO4, adjusted to pH 7.4 with 85% H3PO4 and supplemented with 1.4 mL L^–1 triethylamine; final pH: 8) and acetonitrile (50:50, v/v) were pumped at a flow rate of 2 mL min^–1. In all cases, column temperature was 35 °C, injection volume was 50 µl, and absorbance was monitored at 254 nm. Serial dilutions for the calibration curves were prepared in the interval 0.5–20 µM in either PBS:CH3CN or H2O:CH3CN mixture (50:50, v/v) for compounds 5c, 6a, 6b, 8, 9, 10, 11, 12, 13, 14, 15, 17a, 17b, 18a, 18b, and in acetonitrile for compounds 6c and 7.

Data set [2] can be described thus: MTT cell viability assay in HepG2 cell cultures. It counts as cell-based, human. The note with it: human, HepG2 cells, MTT. The procedure: The approach we set‐up to test the new PCSK9i was based on functional assay, which evaluated at the same time compounds cytotoxicity, and their effect on the secreted PCSK9 on the same cell line. First, cell viability was evaluated in HepG2 cell cultures using the MTT assay (CC50 values are reported in Table 1 and Figure 5 ) after 24 h of incubation in starving conditions (0.4% fetal bovine serum (FBS)). The low FBS concentration, and thus low extracellular lipoproteins, stimulates the sterol responsive element binding protein (SREBP) pathway, inducing the expression of LDLR, PCSK9, HMG‐CoA reductase,^[ [28] ^] thus increasing the uptake of exogenous cholesterol and enhancing the synthesis of endogenous cholesterol. This first step allowed us to calculate the CC50 and identify the noncytotoxic concentrations (viability higher than 90%; Table 1), then tested for PCSK9 inhibitory activity.
Cell viability was assessed using the MTT assay. Cells were seeded in 96‐well plates (2.5 × 10^4 cells/well) in MEM supplemented with 10% v/v FBS and incubated for 24 h. The cells were then treated with the synthesized compounds dissolved in DMSO at increasing concentrations (from 0.5 to 50 µM) in MEM supplemented with 0.4% v/v FBS for 24 h. Simvastatin [20 and 40 µM] and BBR [10 µM] (both from Merck, St. Louis, Missouri, USA) were used as internal controls as PCSK9 inducer and inhibitor, respectively.^[ [21] ^, [34] ^, [35] ^] The cells were then incubated for 2 h with a solution of MTT [1 mg mL^–1] in MEM supplemented with 0.4% v/v FBS, away from light sources. The supernatant was then collected and 200 µL of DMSO was added to each well to solubilize the newly formed formazan. Finally, an aliquot of 100 µL was taken to measure the absorbance at a wavelength of 570 nm using an absorbance microplate reader (Spark Tecan, Switzerland). Every experimental condition was run in duplicate and the average cell viability and standard deviation was calculated. Cell viability was expressed as the percentage of treated cells compared to untreated (basal) cells. CC50 values for each compound were calculated by interpolating the percentage of cell viability through nonlinear regression analysis of the log (inhibition) versus response using GraphPad Prism software version 8.0 (GraphPad Software Inc., La Jolla, CA).
In general terms: Tetrazolium assays rely on reduction of a dye to a coloured formazan, in cell work by metabolically active cells.

Another data set deals with secreted PCSK9. Briefly: PCSK9 secretion in culture medium, ELISA on HepG2 supernatants. It counts as cell-based, human. The method, then:
Next, the levels of secreted PCSK9 were quantified by ELISA assay (Figure 5) only on supernatants collected from cells treated with noncytotoxic concentrations of each compound, as reported in Table 1. Simvastatin (Simva) at 20 and 40 μM and berberine (BBR) at 10 μM were included as controls. As described in the literature, simvastatin induces PCSK9 expression as a compensatory mechanism in response to its cholesterol‐lowering effects, being a pharmacological competitor for HMG‐CoA reductase, the rate‐limiting enzyme of the cholesterol biosynthetic pathway.^[ [29] ^] In contrast, BBR, a natural compound, reduces the expression of PCSK9 levels through transcriptional inhibition, thus increasing the LDLR availability on plasma membrane.^[ [30] ^] As additional and distinct mechanism to the latter, BBR is also able to stabilize the transcript of LDLR, thus increasing its half‐life.^[ [31] ^] As expected, cells stimulated with simvastatin released more PCSK9 into the culture medium compared to unstimulated cells, with a statistically significant concentration‐dependent effect (+73% at 20 μM, p < 0.01; +200% at 40 μM, p < 0.0001), while BBR at 10 μM decreased PCSK9 levels in the medium more than 50% (p < 0.0001 vs. basal) (Figure 5).^[ [32] ^] The amount of PCSK9 secreted into the culture media was measured with an appropriate ELISA kit (R&D System, DY3888 and DY008B2) on the supernatants collected during the MTT assay. Every experimental condition was run in duplicate and the average PCSK9 secretion and standard deviation was calculated. A 4PL regression analysis was used to interpolate unknowns with the standard curve using GraphPad Prism v10.2, according to manufacturers’ instructions. The data were normalized onto the corresponding cell viability, and IC50 was then calculated using GraphPad Prism v10.2.
(In general: ELISA stands for enzyme-linked immunosorbent assay.)

The mark [3] stands for this setting: 24 h incubation, HepG2, 0.4% FBS, 0.5-50.0 μM, read-out: CC50 (CI 95%).
The mark [4] stands for this setting: HepG2, 24 h, non-cytotoxic concentrations.
The mark [5] stands for this setting: Homo sapiens, HepG2, Table S2, ELISA, non-cytotoxic concentrations, read-out: IC50 ± SD on PCSK9 secreted by HepG2.
Where [6] appears, read: printed in Figures 5 and 8, HepG2, 24 h, read-out: CC50.
[7] abbreviates: Homo sapiens, HepG2, 24 h, read-out: secreted PCSK9 change vs. basal.
Where [8] appears, read: Homo sapiens, HepG2, 24 h, ELISA on supernatants, normalized to viability, Figures 5 and 8 and text, read-out: IC50 (anti-PCSK9 activity, PCSK9 secretion).

On to `Cc1cc2c(c(=O)n1Cc1ccc(C(F)(F)F)cc1)CCC(=O)N2Cc1ccc(C(F)(F)F)cc1` [Compound 11, 7‐Methyl‐1,6‐Bis(4‐(Trifluoromethyl)Benzyl)‐4,6‐Dihydro‐1,6‐Naphthyridine‐2,5(1H,3H)‐Dione], for which the “metabolic stability (in words)” value in data set [1] is given as “modest yet notable improvement in stability”. Moreover, in data set [2] (setting [3]), the CC50 at 24 h is 28 µM. In addition, in the data set on secreted PCSK9 (setting [4]), the “effect on PCSK9 secretion (in words)” value is “moderate but significant inhibition of PCSK9 secretion”. For the same molecule, the IC50 in the data set with secreted PCSK9 (setting [5]) stood at 10.2 ± 2.81 µM.
With `CC(=O)N(Cc1ccc(C(F)(F)F)cc1)c1cc(C)n(Cc2ccc(C(F)(F)F)cc2)c(=O)c1Br` [Compound 15, N‐(3‐Bromo‐6‐Methyl‐2‐Oxo‐1‐(4‐(Trifluoromethyl)Benzyl)‐1,2‐Dihydropyridin‐4‐yl)‐N‐(4‐(Trifluoromethyl)Benzyl)Acetamide], in data set [1], the “metabolic stability (in words)” value is “did not result in improved stability over the single‐site modifications in 12 or 6b”. Also, the CC50 at 24 h in data set [2] (setting [6]) is above 50 µM. For the same molecule, the “effect on PCSK9 secretion (in words)” value with secreted PCSK9 (setting [4]) is on record as “did not inhibit PCSK9 in a dose‐dependent manner”. In addition, the inhibition at 25 µM in the data set with secreted PCSK9 (setting [7]) was 80%.
In the case of `CCC(C)(C)C(=O)O[C@H]1C[C@@H](C)C=C2C=C[C@H](C)[C@H](CC[C@@H]3C[C@@H](O)CC(=O)O3)[C@H]21` [simvastatin, reference compound], the “secreted PCSK9 change vs. unstimulated cells” value in the data set with secreted PCSK9 (20 μM, HepG2, 24 h) was “+73%”; with secreted PCSK9 (40 μM, HepG2, 24 h), “+200%”.
Turning to `Cc1cc(OCc2cccc(F)c2)cc(=O)n1Cc1ccc(Cl)cc1` [Compound 17b, 1‐(4‐Chlorobenzyl)‐4‐((3‐Fluorobenzyl)Oxy)‐6‐Methylpyridin‐2(1H)‐One], the “metabolic stability (in words)” value in data set [1] is “did not show any improvement in metabolic stability compared to 5c”. Moreover, the CC50 at 24 h in data set [2] (setting [3]) was 10 µM. Besides, in the data set with secreted PCSK9 (setting [7]), the inhibition at 5 µM was found to be 82%. Besides, in the data set on secreted PCSK9 (setting [8]), the IC50 is below 2.5 µM.
For `Cc1cc2c(c(=O)n1Cc1ccc(C(F)(F)F)cc1)CN(C(C)C)CN2Cc1ccc(C(F)(F)F)cc1` [Compound 10, 3‐Isopropyl‐7‐Methyl‐1,6‐Bis(4‐(Trifluoromethyl)Benzyl)‐2,3,4,6‐Tetrahydropyrido[4,3‐d]pyrimidin‐5(1H)‐One], the “metabolic stability (in words)” value in data set [1] is reported as “less stable”. Besides, the CC50 at 24 h in data set [2] (setting [3]) worked out at 21.9 µM.
In the case of `CC(=O)N(Cc1ccc(C(F)(F)F)cc1)c1cc(C)n(Cc2ccc(C(F)(F)F)cc2)c(=O)c1` [Compound 12, N‐(6‐Methyl‐2‐Oxo‐1‐(4‐(Trifluoromethyl)Benzyl)‐1,2‐Dihydropyridin‐4‐yl)‐N‐(4‐(Trifluoromethyl)Benzyl)Acetamide], the “metabolic stability, percentage of intact compound recovered relative to control” value in data set [1] (MLM 1 mg/ml + NADPH-generating system, 10 µM, HPLC) is “exceeding 95%”. Besides, the CC50 at 24 h in data set [2] (setting [3]) is 43 µM. Moreover, the “effect on PCSK9 secretion (in words)” value in the data set on secreted PCSK9 (setting [4]) is listed as “did not inhibit PCSK9 in a dose‐dependent manner”. The IC50 in the data set with secreted PCSK9 (setting [5]) came to 13.6 ± 2.67 µM. In addition, the inhibition at 25 µM with secreted PCSK9 (setting [7]) was found to be 75%.
In the case of `Cc1cc(OCc2ccc(C(F)(F)F)cc2)cc(=O)n1Cc1ccc(C(F)(F)F)cc1` [Compound 17a, 6‐Methyl‐1‐(4‐(Trifluoromethyl)Benzyl)‐4‐((4‐(Trifluoromethyl)Benzyl)Oxy)pyridin‐2(1H)‐One], the “metabolic stability (in words)” value in data set [1] is “did not show improved metabolic stability compared to 5c”. Further, the CC50 at 24 h in data set [2] (setting [3]) amounted to 22 µM. In the data set with secreted PCSK9 (setting [7]), the inhibition at 5 µM came to 58%.
As to `COc1ccc2cc3[n+](cc2c1OC)CCc1cc2c(cc1-3)OCO2` [BBR, berberine, reference compound], in data set [2] (setting [6]), the CC50 at 24 h amounted to 25 µM. The “decrease of secreted PCSK9 vs. basal” value in the data set with secreted PCSK9 (10 μM, HepG2, 24 h, given as decrease) was “more than 50%”. Further, in the data set with secreted PCSK9 (Homo sapiens, 10 μM, HepG2, 24 h, read-out: secreted PCSK9 change vs. basal), the inhibition at 10 µM was found to be 52%. Also, in the data set with secreted PCSK9 (setting [8]), the IC50 was 10 µM.
Regarding `Cc1cc(NCc2ccc(C(F)(F)F)cc2)c(Cl)c(=O)n1Cc1ccc(C(F)(F)F)cc1` [Compound 6a, 3‐Chloro‐6‐Methyl‐1‐(4‐(Trifluoromethyl)Benzyl)‐4‐((4‐(Trifluoromethyl)Benzyl)Amino)pyridin‐2(1H)‐One], the CC50 at 24 h in data set [2] (setting [3]) was found to be 16 µM. The half-inhibitory concentration (IC50) in the data set with secreted PCSK9 (setting [5]) worked out at 5.4 ± 2.65 µM. In addition, the inhibition at 0.5 µM in the data set with secreted PCSK9 (Homo sapiens, 0.5 μM, HepG2, 24 h, read-out: secreted PCSK9 change vs. basal) was found to be 80%. Further, the inhibition at 5 µM in the data set on secreted PCSK9 (setting [7]) was 55%.

Usually CC50 stands for the concentration that lowers cell viability or growth by half. The IC50 is the point on the concentration scale where inhibition reaches its midpoint.
